From patent US20050260683A1, “Methods for diagnosing and treating pre-term labor” (University of Hawaii, priority 2002, published 2005)
Entries after “also recorded” stand apart in the source; their conditions may differ. Like-named read-outs stand apart in the source and are kept apart here.

Key:
[1] = system: PBEF gene expression in WISH cells; assay: PBEF gene expression in IL-1β-stimulated WISH cells with inhibitors, real-time PCR; format: cell-based, human; conditions: IL-1β 1 ng/ml; for effect on IL-1β-induced up-regulation of PBEF: inhibitor over a range of dilutions
Experimental: (§1) Thus, the human anmiotic epithelial-like cell line (WISH) was stimultated by addition of IL-1β (1 ng/ml) or by stretching (20%). In order to show any inhibitory effects on the expression of PBEF, a panel of inhibitors (SN50, Curcumin and PDTC) were added over a range of dilutions to both systems. Gene expression was quantitated by real-time PCR and normalized to 18 s.

NF-κB = NF-κB translocation in WISH cells, anti-p65 immunolabeling; format: cell-based, human; conditions: after addition of IL-1β
Experimental: as §1
Peak translocation of NF-κB from the cytoplasm to the nucleus occurred one hour after addition of IL-1β and was clearly seen by immunolabeling with an antibody (anti-p65) to one of the subunits of NF-κB. Increased PBEF gene expression also resulted from IL-1β stimulation.

PBEF gene expression = conditions: Ognjanovic et al., cited from earlier work
IL-6 = conditions: Keelan et al.; cited from earlier work
IL-8 = conditions: Keelan et al.; Laham et al.; cited from earlier work

| Compound | effect on IL-1β-induced up-regulation of PBEF [1] | PBEF gene expression / transcription (PBEF gene expression) | IL-6 transcription (IL-6) | IL-8 transcription (IL-8) | other results |
| --- | --- | --- | --- | --- | --- |
| COc1cc(/C=C/C(=O)CC(=O)/C=C/c2ccc(O)c(OC)c2)ccc1O [Curcumin] | prevented the up-regulation of PBEF to varying degrees |  |  |  |  |
| S=C(S)N1CCCC1 [PDTC] | prevented the up-regulation of PBEF to varying degrees |  |  |  |  |
| IL-1β: proinflammatory cytokine interleukin-1-beta |  | stimulate; also recorded: induced | stimulate | stimulate | PBEF gene expression after stimulation [1]: Increased; time of peak translocation of NF-κB from the cytoplasm to the nucleus (NF-κB): one hour |
| IL-6: cytokine interleukin-6 |  | induced |  |  |  |
| IL-8: cytokine interleukin-8 |  | no such effect |  |  |  |
| TNF-α |  | induced | stimulate | stimulate | PBEF gene expression / transcription (PBEF gene expression; listed as TNF-A): stimulate |
